Assay [1] relates to Dendritic cell. Put plainly: Inhibition of MHC class 2-dependent antigen processing in DO11.10 TCR transgenic mouse spleen CD11+ dendritic cells assessed as inhibition of whole ovalbumin-induced CD4+ T cell proliferation incubated for 1 hr prior to whole ovalbumin-challenge measured after 72 hrs by [3H]thymidine incorporation assay. The assay is classed as functional, tissue-based.

The subject of assay [2] is Dendritic cell. Description: Inhibition of MHC class 2-dependent antigen processing in DO11.10 TCR transgenic mouse spleen CD11+ dendritic cells assessed as inhibition of ovalbumin 323 to 339-induced CD4+ T cell proliferation incubated for 1 hr prior to ovalbumin 323 to 339 challenge measured after 72 hrs by [3H]thymidine incorporation assay. The assay is classed as functional, tissue-based. Background: Dividing cells build labelled thymidine or BrdU into new DNA.

Each structure is given as a SMILES string. Activity calls are given as the source filed them. The calls are words filed in the database; no cut-off is given here. Square brackets hold non-standard residues; d marks the D form. Peptide text beside a SMILES is read from it. * marks the point of attachment. Sta = CC(C)C[C@H](N)[C@@H](O)CC(=O)O; NMe2Val = CC(C)[C@@H](C(=O)*)N(C)C; dNMeF = CN[C@H](Cc1ccccc1)C(=O)O; dHiv = CC(C)[C@@H](O)C(=O)O; Hiv = CC(C)[C@H](O)C(=O)O

On to `COC(=O)[C@@H]1CCCN1C(=O)[C@@H](Cc1ccccc1)N(C)C(=O)[C@H](C)NC(=O)[C@@H](NC(=O)C[C@H](O)[C@H](CC(C)C)NC(=O)[C@H](CC(N)=O)NC(=O)[C@H](CC(C)C)NC(=O)[C@H](OC(=O)[C@@H](OC(=O)[C@H](C(C)C)N(C)C)C(C)C)C(C)C)[C@@H](C)O` (NMe2Val-[Hiv][dHiv]LN[Sta]TA[dNMeF]P-OMe), for which the inhibition result in the assay with Dendritic cell [1] and with Dendritic cell [2] was “inactive” throughout.

The record behind these values is ChEMBL document CHEMBL2062495.
